Measurements: patent US8987314B2, “Amide, urea or sulfone amide linked benzothiazole inhibitors of endothelial lipase” (Bristol-Myers Squibb Company, priority 2012, dated 2015)

Columns and labels:
[1] = molecular target: Endothelial lipase (EL) (Homo sapiens (Human), UniProt Q9Y5X9); assay: EL assay: endothelial lipase activity with fluorescent substrate A10070 in DMPG vesicles; type: biochemical
Summary of the method: (§1)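 Vesicles prepared: A10070 dried with DMPG, resuspended in HEPES pH 8.0/NaCl/EDTA, sonicated on ice. Enzyme incubated with compound 30 min at 37° C. Reaction started with 1:10 diluted vesicles. Fluorescence (490/530 nm) followed 60 min; slope from 300–900 secs gives rate.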

[2] = molecular target: hepatic lipase (HL) (Homo sapiens (Human), UniProt P11150); assay: HL assay: hepatic lipase activity with fluorescent substrate A10070 in DMPG vesicles; type: biochemical
hepatic lipase (HL), sequence (P11150 23-499, species assumed): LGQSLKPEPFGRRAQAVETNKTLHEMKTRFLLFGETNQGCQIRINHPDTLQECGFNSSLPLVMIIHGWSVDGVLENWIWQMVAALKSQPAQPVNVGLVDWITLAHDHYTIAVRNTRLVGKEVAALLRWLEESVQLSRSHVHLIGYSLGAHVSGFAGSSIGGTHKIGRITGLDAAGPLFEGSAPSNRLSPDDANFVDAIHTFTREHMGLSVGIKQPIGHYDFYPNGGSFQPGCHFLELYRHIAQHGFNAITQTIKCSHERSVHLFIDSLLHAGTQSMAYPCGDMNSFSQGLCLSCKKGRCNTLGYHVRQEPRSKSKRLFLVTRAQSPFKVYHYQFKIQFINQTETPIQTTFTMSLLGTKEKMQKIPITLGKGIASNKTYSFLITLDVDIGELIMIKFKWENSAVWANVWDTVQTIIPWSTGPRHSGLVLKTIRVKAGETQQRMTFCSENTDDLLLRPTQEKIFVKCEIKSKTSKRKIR
Summary of the method: as §1

Endothelial lipase (EL), sequence (Q9Y5X9 21-500): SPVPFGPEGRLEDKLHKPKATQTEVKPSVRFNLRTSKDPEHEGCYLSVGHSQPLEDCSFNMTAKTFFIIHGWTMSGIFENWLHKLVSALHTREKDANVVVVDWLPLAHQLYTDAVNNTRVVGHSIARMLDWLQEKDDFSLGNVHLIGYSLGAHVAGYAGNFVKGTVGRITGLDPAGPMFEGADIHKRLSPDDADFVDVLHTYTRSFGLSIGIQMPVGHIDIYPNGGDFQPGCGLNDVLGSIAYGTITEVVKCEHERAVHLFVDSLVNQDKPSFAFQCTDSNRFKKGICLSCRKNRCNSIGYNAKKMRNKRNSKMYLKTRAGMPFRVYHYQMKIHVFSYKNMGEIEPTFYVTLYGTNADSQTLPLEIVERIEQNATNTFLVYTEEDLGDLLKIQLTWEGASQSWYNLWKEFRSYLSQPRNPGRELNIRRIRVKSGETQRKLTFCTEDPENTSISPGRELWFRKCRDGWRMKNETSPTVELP

| SMILES | IC50 [1] | IC50 [2] |
| --- | --- | --- |
| COCCNC(=O)c1ccc(-c2ccc3nc(C(C(=O)NCCS(N)(=O)=O)S(=O)(=O)Cc4cccc(F)c4)sc3c2)cc1 (stereo not shown) [Example B117, 4-(2-(1-((3-fluorobenzyl)sulfonyl)-2-oxo-2-((2-sulfamoylethyl)a-mino)ethyl)-1,3-benzothiazol-6-yl)-N-(2-methoxyethyl)benzamide] | < 10 nM | 176 nM |
| NS(=O)(=O)CCNC(=O)C(c1nc2ccc(-c3ccccc3)cc2s1)S(=O)(=O)CC1CC1 (stereo not shown) [Example B118, 2-((cyclopropylmethyl)sul-fonyl)-2-(6-phenyl-1,3-benzothiazol-2-yl)-N-(2-sulfamoylethyl)acetamide] | < 10 nM | 10 nM |
| NS(=O)(=O)CCNC(=O)C(c1nc2ccc(-c3ccccc3)cc2s1)S(=O)(=O)Cc1ccc(F)cc1 (stereo not shown) [Example B119, 2-((4-fluorobenzyl)sul-fonyl)-2-(6-phenyl-1,3-benzothiazol-2-yl)-N-(2-sulfamoylethyl)acetamide] | < 10 nM | 11 nM |
| N#Cc1cccc(CS(=O)(=O)C(C(=O)NCCS(N)(=O)=O)c2nc3ccc(-c4ccccc4)cc3s2)c1 (stereo not shown) [Example B120, 2-((3-cyanobenzyl)sul-fonyl)-2-(6-phenyl-1,3-benzothiazol-2-yl)-N-(2-sulfamoylethyl)acetamide] | < 10 nM | 15 nM |
| COc1ccc(CN(Cc2ccc(OC)cc2)S(=O)(=O)CCNC(=O)C(c2nc3ccc(-c4ccccc4)cc3s2)S(C)(=O)=O)cc1 (stereo not shown) [Example B121, N-(2-(bis(4-methoxybenzyl)sulfamoyl)eth-yl)-2-(methylsulfonyl)-2-(6-phenyl-1,3-benzothiazol-2-yl)a-cetamide] | 80 nM | 11 nM |
| NS(=O)(=O)CCNC(=O)C(c1nc2ccc(-c3cnn(CCN4CCOCC4)c3)cc2s1)S(=O)(=O)Cc1ccccc1 (stereo not shown) [Example B122, 2-(benzylsulfonyl)-2-(6-{1-[2-(4-morpholinyl)ethyl]-1H-pyrazol-4-yl}-1,3-benzothiazol-2-yl)-N-(2-sulfamoylethyl)acetamide] | 44 nM | 631 nM |
| CC(C)CS(=O)(=O)C(C(=O)NCCS(N)(=O)=O)c1nc2ccc(-c3cnn(CCN4CCOCC4)c3)cc2s1 (stereo not shown) [Example B123, 2-(isobutylsulfonyl)-2-(6-{1-[2-(4-morpholinyl)eth-yl]-1H-pyrazol-4-yl}-1,3-benzothiazol-2-yl)-N-(2-sulfamoylethyl)a-cetamide] | 18 nM | 400 nM |
| COCCS(=O)(=O)C(C(=O)NCCS(N)(=O)=O)c1nc2ccc(Br)cc2s1 (stereo not shown) [Example B124, 2-(6-bromo-1,3-benzothiazol-2-yl)-2-((2-methoxyethyl)sulfonyl)-N-(2-sulfamoylethyl)a-cetamide] | 26 nM | 830 nM |
| NS(=O)(=O)CCNC(=O)C(c1nc2ccc(Br)cc2s1)S(=O)(=O)CCC(F)(F)F (stereo not shown) [Example B125, 2-(6-bromo-1,3-benzothiazol-2-yl)-N-(2-sulfamoylethyl)-2-((3,3,3-trifluoropropyl)sulfonyl)a-cetamide] | 99 nM | 300 nM |
| NS(=O)(=O)CCNC(=O)C(c1nc2ccc(-c3ccnc(F)c3)cc2s1)S(=O)(=O)Cc1ccccc1 (stereo not shown) [Example B126, 2-(benzylsulfonyl)-2-(6-(2-fluoro-4-pyridinyl)-1,3-benzothiazol-2-yl)-N-(2-sulfamoylethyl)acetamide] | < 10 nM | 51 nM |
| NS(=O)(=O)CCNC(=O)C(c1nc2ccc(-c3cnn(CCN4CCOCC4)c3)cc2s1)S(=O)(=O)CCCC(F)(F)F (stereo not shown) [Example B127, 2-(6-(1-(2-(4-morpholinyl)eth-yl)-1H-pyrazol-4-yl)-1,3-benzothiazol-2-yl)-N-(2-sulfamoylethyl)-2-((4,4,4-trifluorobutyl)sul-fonyl)acetamide] | < 10 nM | 933 nM |
| Cc1cc2nc(C(C(=O)NCCS(N)(=O)=O)S(C)(=O)=O)sc2cc1-c1ccc(F)nc1 (stereo not shown) [Example B129] | < 10 nM | < 10 nM |
| Cc1cc2nc(C(C(=O)NCCS(N)(=O)=O)S(=O)(=O)CCC(F)(F)F)sc2cc1-c1ccc(F)nc1 (stereo not shown) [Example B130, 2-(6-(6-fluoro-3-pyridinyl)-5-methyl-1,3-benzothiazol-2-yl)-2-(3,3,3-trifluoropropyl-sulfonyl)-N-(2-sulfamoylethyl)acetamide] | < 10 nM | 13 nM |
| Cc1cc2nc(C(C(=O)NCCS(N)(=O)=O)S(=O)(=O)CC(C)C)sc2cc1-c1ccc(F)nc1 (stereo not shown) [Example B131, 2-(6-(6-fluoro-3-pyridinyl)-5-methyl-1,3-benzothiazol-2-yl)-2-(isobutylsulfonyl)-N-(2-sulfamoylethyl)acetamide] | < 10 nM | 12 nM |
| Cc1cc2nc(C(C(=O)NCCS(N)(=O)=O)S(=O)(=O)C(C)C)sc2cc1-c1ccc(F)nc1 (stereo not shown) [Example B132, 2-(6-(6-fluoro-3-pyridinyl)-5-methyl-1,3-benzothiazol-2-yl)-2-(isopropylsulfonyl)-N-(2-sulfamoylethyl)acetamide] | < 10 nM | 411 nM |
| NS(=O)(=O)CCNC(=O)C(c1nc2c(F)cc(-c3ccccc3)cc2s1)S(=O)(=O)Cc1ccccc1 (stereo not shown) [Example B133, 2-(benzylsulfonyl)-2-(4-fluoro-6-phenyl-1,3-benzothiazol-2-yl)-N-(2-sulfamoylethyl)acetamide] | < 10 nM | 22 nM |
| COCCS(=O)(=O)C(C(=O)NCCS(N)(=O)=O)c1nc2c(F)cc(-c3ccccc3)cc2s1 (stereo not shown) [Example B134, 2-(4-fluoro-6-phenyl-1,3-benzothiazol-2-yl)-2-((2-methoxyethyl)sulfonyl)-N-(2-sulfamoylethyl)a-cetamide] | < 10 nM | 18 nM |
| NS(=O)(=O)CCNC(=O)C(c1nc2cc(F)c(-c3ccccc3)cc2s1)S(=O)(=O)CCNC(=O)OCc1ccccc1 (stereo not shown) [Example B135, benzyl (2-((1-(5-fluoro-6-phenyl-1,3-benzothiazol-2-yl)-2-oxo-2-((2-sulfamoyl-ethyl)amino)ethyl)sul-fonyl)ethyl)carbamate] | < 10 nM | 56 nM |
| NS(=O)(=O)CCNC(=O)C(c1nc2cc(F)c(-c3ccccc3)cc2s1)S(=O)(=O)CCC(F)(F)F (stereo not shown) [Example B136, 2-(5-fluoro-6-phenyl-1,3-benzothiazol-2-yl)-N-(2-sulfamoylethyl)-2-[(3,3,3-trifluoropropyl)sulfonyl]a-cetamide] | < 10 nM | 11 nM |
| CS(=O)(=O)C(C(=O)NCc1csc(N)n1)c1nc2ccc(-c3ccc(C(=O)N4CCOCC4)cc3)cc2s1 (stereo not shown) [Example B137, N-((2-amino-1,3-thiazol-4-yl)methyl)-2-(methylsulfonyl)-2-(6-(4-(4-morpholinylcarbonyl)phen-yl)-1,3-benzothiazol-2-yl)acetamide] | < 10 nM | 17500 nM |
| Cn1cc(-c2cc3sc(C(C(=O)NCCS(N)(=O)=O)S(=O)(=O)Cc4ccccc4)nc3cc2F)cn1 (stereo not shown) [Example B138, 2-(benzylsulfonyl)-2-(5-fluoro-6-(1-methyl-1H-pyrazol-4-yl)-1,3-benzothiazol-2-yl)-N-(2-sulfamoylethyl)acetamide] | < 10 nM | 142 nM |
| NS(=O)(=O)CCNC(=O)C(c1nc2ccc(-c3cncnc3)cc2s1)S(=O)(=O)CCC(F)(F)F (stereo not shown) [Example B139, 2-(6-(5-Pyrimidinyl)-1,3-benzothiazol-2-yl)-N-(2-sulfamoylethyl)-2-((3,3,3-trifluoropropyl)sulfonyl)a-cetamide] | 16 nM | 2090 nM |
| NS(=O)(=O)CCNC(=O)C(c1nc2ccc(-c3cncnc3)cc2s1)S(=O)(=O)Cc1ccccc1 (stereo not shown) [Example B140, 2-(benzylsulfonyl)-2-(6-(5-pyrimidinyl)-1,3-benzothiazol-2-yl)-N-(2-sulfamoylethyl)acetamide] | 13.7 nM | 8790 nM |
| COCCS(=O)(=O)C(C(=O)NCCS(N)(=O)=O)c1nc2ccc(-c3cncnc3)cc2s1 (stereo not shown) [Example B141, 2-((2-methoxyethyl)sul-fonyl)-2-(6-(5-pyrimidinyl)-1,3-benzothiazol-2-yl)-N-(2-sulfamoylethyl)acetamide] | 14.7 nM | 2210 nM |
| COc1cc(-c2ccc3nc(C(C(=O)NCCS(N)(=O)=O)S(C)(=O)=O)sc3c2)c(F)cn1 (stereo not shown) [Example B142, 2-(6-(5-fluoro-2-methoxy-4-pyridinyl)-1,3-benzothiazol-2-yl)-2-(methylsulfonyl)-N-(2-sulfamoylethyl)acetamide] | > 10 nM | 77 nM |
| NS(=O)(=O)CCNC(=O)C(c1nc2ccc(-c3cncnc3)cc2s1)S(=O)(=O)Cc1ccc(F)cc1 (stereo not shown) [Example B143, 2-((4-fluorobenzyl)sul-fonyl)-2-(6-(5-pyrimidinyl)-1,3-benzothiazol-2-yl)-N-(2-sulfamoylethyl)acetamide] | 18 nM | 4740 nM |
| COc1cc(-c2ccc3nc(C(C(=O)NCCS(N)(=O)=O)S(=O)(=O)CCC(F)(F)F)sc3c2)ccn1 (stereo not shown) [Example B144, 2-(6-(2-methoxy-4-pyridinyl)-1,3-benzothiazol-2-yl)-N-(2-sulfamoylethyl)-2-((3,3,3-trifluoropropyl)sulfonyl)a-cetamide] | < 10 nM | 33 nM |
| Cn1ccc(-c2ccc3nc(C(C(=O)NCCS(N)(=O)=O)S(=O)(=O)CCC(F)(F)F)sc3c2)cc1=O (stereo not shown) [Example B145, 2-(6-(1-methyl-2-oxo-1,2-dihydro-4-pyridinyl)-1,3-benzothiazol-2-yl)-N-(2-sulfamoylethyl)-2-((3,3,3-trifluoropropyl)sulfonyl)a-cetamide] | < 10 nM | 362 nM |
| CS(=O)(=O)C(C(=O)NCCS(N)(=O)=O)c1nc2ccc(-c3cncnc3)cc2s1 (stereo not shown) [Example B146, 2-(methylsulfonyl)-2-(6-(5-pyrimidinyl)-1,3-benzothiazol-2-yl)-N-(2-sulfamoylethyl)acetamide] | < 10 nM | 916 nM |
